Data as given in BindingDB's records for doi:10.1021/jm00089a013 (Merck Sharp and Dohme Research Laboratories, 1992).

Test: In vitro binding affinity against sigma receptor by using [3H]-DTG ([3H]-6) as radioligand in guinea pig cerebellum.

Row | Compound | IC50
1 | c1ccc(CCN2CCC3(CCc4ccccc43)CC2)cc1 | 2.8 nM
2 | CCCCN1CCC2(CCc3ccccc32)CC1 | 2 nM
3 | CCCCN1CCC2(CCCCc3ccccc32)CC1 | 4.8 nM
4 | c1ccc(CN2CCC3(CCCCc4ccccc43)CC2)cc1 | 6.8 nM
5 | C=CCCN1CCC2(CCCc3ccccc32)CC1 | 6.6 nM
6 | c1ccc2c(c1)CCCC21CCN(CC2CC2)CC1 | 10 nM
7 | Oc1ccc2c(c1)C1(CCC2)CCN(Cc2ccccc2)CC1 | 69 nM
8 | C=CCN1CCC2(CCCc3ccccc32)CC1 | 18 nM
9 | CCCCCCN1CCC2(CCCc3ccccc32)CC1 | 2.9 nM
10 | c1ccc2c(c1)CCCC21CCN(CC2CCCO2)CC1 (stereo not given) | 5.5 nM

Next, values leading:

Row | IC50 | Compound
11 | 5 nM | c1ccc(CCN2CCC3(CCCc4ccccc43)CC2)cc1
12 | 14 nM | O=[N+]([O-])c1ccc(CN2CCC3(CCCc4ccccc43)CC2)cc1
13 | 3.5 nM | COc1ccc(CN2CCC3(CCc4ccccc43)CC2)cc1
14 | 6.3 nM | c1csc(CN2CCC3(CCCc4ccccc43)CC2)c1
15 | 16 nM | c1ccc(CN2CCC3(CCc4ccccc43)CC2)nc1
16 | 6.8 nM | Clc1ccc(CN2CCC3(CCCc4ccccc43)CC2)cc1
17 | 5.9 nM | Cc1ccc(CN2CCC3(CCc4ccccc43)CC2)cc1
18 | 9.5 nM | c1coc(CN2CCC3(CCCc4ccccc43)CC2)c1
19 | 5.5 nM | Cc1ccc2c(c1)CCCC21CCN(Cc2ccccc2)CC1
20 | 1.7 nM | COc1ccc(CN2CCC3(CCCc4ccccc43)CC2)cc1
